In assay [1] the target is T1, full length Keap1 protein / full length NRF2 protein (Homo sapiens, UniProt Q14145).
T1 construct: full length NRF2 protein and full length Keap1 protein (Keap1 exists a dimer) are used; His
The assay can be described thus: NRF2-Keap1 TR-FRET Low Protein Assay. The following applies: 1.25 nM Keap1 FlagHis and 2.5 nM biotin-NRF2 added. It is filed as binding. The method, boiled down:
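Flag-tagged full-length Keap1 was preincubated with compound (3-fold series) for 2.25 h at 37 °C in Tris pH 8.0/MgCl2/NaCl/BSA/DTT/CHAPS. Biotin-Avi-NRF2 (added at 2.5 nM) was then bound for 1.25 h at 4 °C. Eu-streptavidin/anti-Flag-APC TR-FRET (665/615 nm) was read after 1 h at RT, and pIC50 came from a four-parameter fit.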
On the technique in general: TR-FRET usually uses a lanthanide donor and a delayed reading to cut background.

The target of assay [2] is T2, Keap1 Kelch domain (321-609) / TAMRA-labeled 16mer NRF2 peptide (ETGE motif) (Homo sapiens, UniProt Q14145).
T2 construct: the Kelch domain (321-609) of Keap1 is used
The assay can be described thus: NRF2-Keap1 FP Assay (Keap1 Kelch fluorescence polarization). It is filed as binding. To be noted: 20 nM Keap1 (321-609), 8 nM Tamra labeled peptide. An outline of the steps:
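Compound dilutions (3-fold) were incubated 1 hr at room temperature with 20 nM Keap1 Kelch (321-609) and 8 nM TAMRA-labeled ETGE 16mer peptide. Buffer was 50 mM Tris pH 8.0, 100 mM NaCl, 5 mM MgCl2, 1 mM DTT, 2 mM CHAPS, 0.005% BSA. Fluorescence polarization (mP) was normalized to controls and fitted with a four-parameter equation to give pIC50.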
A general note: In fluorescence polarisation assays a small probe gives low polarisation when free and higher when bound to something large.

The subject of assay [3] is NQO1 specific enzyme activity in BEAS-2B cells (marker for NRF2 activation). The assay can be described thus: BEAS-2B NQO1 MTT Assay. It is filed as cell-based. To be noted: Homo sapiens. An outline of the steps:
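NQO1 specific activity induction is derived from the rate of MTT reduction (ΔOD/min, 570 nm, 30 min kinetic read) in crude lysates of BEAS-2B cells exposed to compound for 48 h. A 3-parameter fit gives EC50, reported as pEC50; part of each lysate goes to Cell Titer Glo.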

Setting [4] is: compound incubated 48 hours, read-out: EC50 (NQO1 specific enzyme activity induction).

Where a name gives a salt, the structure may show the parent alone. Read-outs that look alike come from different tables or passages of the source. Where only a bound is given, the exact number is not on record here.

T2 sequence (Q14145 321-609): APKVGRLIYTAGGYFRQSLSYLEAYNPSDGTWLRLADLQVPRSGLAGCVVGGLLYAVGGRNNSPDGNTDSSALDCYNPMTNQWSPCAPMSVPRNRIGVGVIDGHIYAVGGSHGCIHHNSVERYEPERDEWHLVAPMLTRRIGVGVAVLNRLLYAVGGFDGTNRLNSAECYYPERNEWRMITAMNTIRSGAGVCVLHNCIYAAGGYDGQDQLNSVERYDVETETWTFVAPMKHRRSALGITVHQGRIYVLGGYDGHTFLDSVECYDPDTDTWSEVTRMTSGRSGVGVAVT
T1 sequence (Q14145 whole entry): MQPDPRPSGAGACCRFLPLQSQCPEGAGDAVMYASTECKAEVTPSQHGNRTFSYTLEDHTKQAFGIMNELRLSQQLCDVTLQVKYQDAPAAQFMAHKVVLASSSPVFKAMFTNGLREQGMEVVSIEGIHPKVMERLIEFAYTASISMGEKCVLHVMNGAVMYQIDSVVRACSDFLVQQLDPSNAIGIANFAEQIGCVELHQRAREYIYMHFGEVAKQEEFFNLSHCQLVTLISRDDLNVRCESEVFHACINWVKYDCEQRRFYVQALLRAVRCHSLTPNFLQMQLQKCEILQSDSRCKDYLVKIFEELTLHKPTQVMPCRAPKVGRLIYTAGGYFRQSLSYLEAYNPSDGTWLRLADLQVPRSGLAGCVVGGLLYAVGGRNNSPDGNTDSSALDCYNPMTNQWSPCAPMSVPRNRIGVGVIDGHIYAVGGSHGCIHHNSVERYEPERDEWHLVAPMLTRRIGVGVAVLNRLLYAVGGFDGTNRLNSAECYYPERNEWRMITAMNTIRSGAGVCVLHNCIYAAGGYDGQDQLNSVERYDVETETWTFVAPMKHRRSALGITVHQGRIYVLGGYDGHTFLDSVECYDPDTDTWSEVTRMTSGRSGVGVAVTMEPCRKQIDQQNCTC

On to `CC[C@@H]1CN(Cc2cccc(-c3cccc(-n4ncc(C(=O)O)c4[C@@H]4C[C@H]4c4cn(C)nn4)c3)c2)Cc2ccccc2O1` [Example 65, 1-(3′-(((R)-2-Ethyl-2,3-dihydrobenzo[f][1,4]oxazepin-4(5H)-yl)methyl)-[1,1′-biphenyl]-3-yl)-5-((1R,2R)-2-(1-methyl-1H-1,2,3-triazol-4-yl)cyclopropyl)-1H-pyrazole-4-carboxylic Acid], for which the 50% inhibitory concentration (IC50) in assay [1] is below 10 nM; in assay [2], 10 to 100 nM. Besides, the concentration giving a half-maximal response (EC50) in assay [3] (setting [4]) lay within 100 to 1000 nM.
The matching figures for `C[C@H](Oc1cccc(-c2cccc(-n3ncc(C(=O)O)c3[C@@H]3C[C@H]3c3cn(C)nn3)c2)c1)C1CCCCCC1` [Example 73, 1-(3′-((S)-1-Cycloheptylethoxy)-[1,1′-biphenyl]-3-yl)-5-((1R,2R)-2-(1-methyl-1H-1,2,3-triazol-4-yl)cyclopropyl)-1H-pyrazole-4-carboxylic Acid]: below 10 nM, 10 to 100 nM and 1 to 10 nM.
The matching figures for `C[C@H](Oc1cccc(-c2cccc(-n3ncc(C(=O)OCCO)c3[C@@H]3C[C@H]3c3cn(C)nn3)c2)c1)C1CCCCC1` [Example 107, 2-Hydroxyethyl 1-(3′-((S)-1-cyclohexylethoxy)-[1,1′-biphenyl]-3-yl)-5-((1R,2R)-2-(1-methyl-1H-1,2,3-triazol-4-yl)cyclopropyl)-1H-pyrazole-4-carboxylate]: 1000 to 10000 nM, above 10000 nM and 100 to 1000 nM.
For `CCC[C@@H]1CCCCN1C(=O)c1cccc(-c2cccc(-n3ncc(C(=O)O)c3[C@@H]3C[C@H]3c3cc(C)no3)c2)c1F` (racemic) [Example 117, 1-(2′-fluoro-3′-((R)-2-propylpiperidine-1-carbonyl)-[1,1′-biphenyl]-3-yl)-5-(trans-2-(3-methylisoxazol-5-yl)cyclopropyl)-1H-pyrazole-4-carboxylic Acid], in that order: below 10 nM, 10 to 100 nM and 10 to 100 nM.
On to `CC[C@@H]1CN(Cc2cccc(-c3cccc(-n4ncc(C(=O)O)c4[C@@H]4C[C@H]4c4cn(C)nn4)c3)c2)S(=O)(=O)c2ccccc2O1` [Example 255, 1-(3′-(((R)-4-Ethyl-1,1-dioxido-3,4-dihydro-2H-benzo[b][1,4,5]oxathiazepin-2-yl)methyl)-[1,1′-biphenyl]-3-yl)-5-(trans-2-(1-methyl-1H-1,2,3-triazol-4-yl)cyclopropyl)-1H-pyrazole-4-carboxylic Acid], for which the 50% inhibitory concentration (IC50) is below 10 nM in assay [1] and 10 to 100 nM in assay [2]. In addition, the EC50 is 100 to 1000 nM in assay [3] (setting [4]) and above 1000 nM in assay [3] (in two determinations (footnote ϕ), read-out: EC50 in two determinations).
As to `CCC1COc2ccccc2CN1Cc1cccc(-c2cccc(-n3ncc(C(=O)O)c3[C@H]3C[C@@H]3c3cn(C)nn3)c2)c1` (mixture of isomers) [Example 118, 1-(3′-((3-Ethyl-2,3-dihydrobenzo[f][1,4]oxazepin-4(5H)-yl)methyl)-[1,1′-biphenyl]-3-yl)-5-((1,2-trans)-2-(1-methyl-1H-1,2,3-triazol-4-yl)cyclopropyl)-1H-pyrazole-4-carboxylic Acid], the values for the IC50 in assay [1] and in assay [2] were below 10 nM and 10 to 100 nM, respectively. In addition, in assay [3] (setting [4]), the EC50 was in the range of 100 to 1000 nM.
On to `CC(Cc1cccc(-c2cccc(-n3ncc(C(=O)O)c3[C@@H]3C[C@H]3c3cn(C)nn3)c2)c1)C1CCCCC1` (single isomer, unassigned) [Example 116e, 1-(3′-((R) or (S)-2-Cyclohexylpropyl)-[1,1′-biphenyl]-3-yl)-5-((1R,2R)-2-(1-methyl-1H-1,2,3-triazol-4-yl)cyclopropyl)-1H-pyrazole-4-carboxylic Acid], for which the IC50 in assay [1] and in assay [2] was 10 to 100 nM in each case. Besides, in assay [3] (setting [4]), the 50% effective concentration (EC50) fell in the range of 1 to 10 nM.
`C[C@H](Oc1cccc(-c2cccc(-n3ncc(C(=O)O)c3[C@@H]3C[C@H]3c3cn(C)nn3)c2)c1)C1CCCCC1` [Example 68, 1-(3′-((S)-1-Cyclohexylethoxy)-[1,1′-biphenyl]-3-yl)-5-((1R,2R)-2-(1-methyl-1H-1,2,3-triazol-4-yl)cyclopropyl)-1H-pyrazole-4-carboxylate, Sodium salt]: the IC50 is below 10 nM in assay [1] and 10 to 100 nM in assay [2]. Also, the 50% effective concentration (EC50) in assay [3] (BEAS-2B, 48 h, compound incubated 48 hours, read-out: EC50 (NQO1 specific enzyme activity induction)) lay in the range of 1 to 10 nM.
On to `CC[C@H]1c2ccccc2OCCN1Cc1cccc(-c2cccc(-n3ncc(C(=O)O)c3[C@@H]3C[C@H]3c3cn(C)nn3)c2)c1` (single isomer, unassigned; isomer 2) [Example 121], for which the IC50 is below 10 nM in assay [1] and 1 to 10 nM in assay [2]. Moreover, the EC50 in assay [3] (setting [4]) lay within 10 to 100 nM.
For `CC(C)n1cc([C@@H]2C[C@H]2c2c(C(=O)O)cnn2-c2cccc(-c3cccc(O[C@@H](C)C4CCCCC4)c3)c2)nn1` (racemic) [Example 91, 1-(3′-((S)-1-Cyclohexylethoxy)-[1,1′-biphenyl]-3-yl)-5-(trans-2-(1-isopropyl-1H-1,2,3-triazol-4-yl)cyclopropyl)-1H-pyrazole-4-carboxylic acid], in that order: 10 to 100 nM, 10 to 100 nM and 1 to 10 nM.
As to `CCN1CCN(Cc2cccc(-c3cccc(-n4ncc(C(=O)O)c4[C@@H]4C[C@H]4c4cn(C)nn4)c3)c2)S(=O)(=O)c2ccccc21` [Example 139, 1-(3′-((5-Ethyl-1,1-dioxido-4,5-dihydrobenzo[f][1,2,5]thiadiazepin-2(3H)-yl)methyl)-[1,1′-biphenyl]-3-yl)-5-((1R, 2R)-2-(1-methyl-1H-1,2,3-triazol-4-yl)cyclopropyl)-1H-pyrazole-4-carboxylic acid], the IC50 is below 10 nM in assay [1] and 10 to 100 nM in assay [2]. In addition, the concentration giving a half-maximal response (EC50) in assay [3] (setting [4]) is 1000 to 10000 nM.
For `CC(Oc1cccc(-c2cccc(-n3ncc(C(=O)O)c3[C@H]3C[C@@H]3c3cn(C(C)C)nn3)c2)c1)C1CCCCC1` (mixture of isomers) [Example 195, 1-(3′-(1-cyclohexylethoxy)-[1,1′-biphenyl]-3-yl)-5-((1,2-trans)-2-(1-isopropyl-1H-1,2,3-triazol-4-yl)cyclopropyl)-1H-pyrazole-4-carboxylic acid], in that order: 10 to 100 nM, 100 to 1000 nM and 10 to 100 nM.
The matching figures for `Cc1c(OCC2CCCCC2)cccc1-c1cccc(-n2ncc(C(=O)O)c2[C@H]2C[C@@H]2c2cn(C)nn2)c1` (racemic) [Example 72, 1-(3′-(Cyclohexylmethoxy)-2′-methyl-[1,1′-biphenyl]-3-yl)-5-(trans-2-(1-methyl-1H-1,2,3-triazol-4-yl)cyclopropyl)-1H-pyrazole-4-carboxylic Acid]: 100 to 1000 nM, 100 to 1000 nM and 10 to 100 nM.
For `C[C@H](Oc1cccc(-c2cccc(-n3ncc(C(=O)O)c3[C@@H]3C[C@H]3c3cn(C4CNC4)nn3)c2)c1)C1CCCCC1` (racemic) [Example 85, 5-(trans-2-(1-(Azetidin-3-yl)-1H-1,2,3-triazol-4-yl)cyclopropyl)-1-(3′-((S)-1-cyclohexylethoxy)-[1,1′-biphenyl]-3-yl)-1H-pyrazole-4-carboxylic Acid], in that order: 10 to 100 nM, 10 to 100 nM and 100 to 1000 nM.

In general, IC50 refers to the point on the concentration scale where inhibition reaches its midpoint. A lower IC50 goes with inhibition by little substance. Broadly, the EC50 is the midpoint of the concentration-response curve.

Values taken from patent US10364256B2 (GlaxoSmithKline Intellectual Property Development Limited, priority 2015, dated 2019).
